Where two headings read alike, the source gives them in different places. Starred links: 1 amine or outer side, 2 acyl side, 3 side chain; linkers in the order of their positions; H or OH if unused. Non-standard residues stand in square brackets, D forms with d. Residues, ends and D or L forms follow the SMILES beside them. *: point of attachment. X4 = O=C(O)CN1CCN(CC(=O)O)CCN(CC(=O)NCc2ccc(NC(=O)COCC(=O)*)cc2)CCN(CC(=O)O)CC1; DOTAGA = O=C(O)CN1CCN(CC(=O)O)CCN(C(CCC(=O)*)C(=O)O)CCN(CC(=O)O)CC1; Benzoyl(4-SiFtBu2) = CC(C)(C)[Si](F)(c1ccc(C(=O)*)cc1)C(C)(C)C; DOTA = O=C(O)CN1CCN(CC(=O)O)CCN(CC(=O)*)CCN(CC(=O)O)CC1; d(γGlu) = O=C(O)[C@@H](CCC(=O)[*:2])N[*:1]; Sta = CC(C)C[C@H](N)[C@@H](O)CC(=O)O; Bta = N[C@@H](Cc1csc2ccccc12)C(=O)O; X1 = O=C(CN1CCC(N[*:1])CC1)[*:2]; NHCH(iBu)2 = CC(C)CC(CC(C)C)N*; dOrn = NCCC[C@@H](N)C(=O)O; hSer = N[C@@H](CCO)C(=O)O; X2 = NCCNCC(CNCCN)C(=O)*; dDap = NC[C@@H](N)C(=O)O; CO = O=C([*:1])[*:2]
Columns and labels:
GRPR = molecular target: T1, GRPR (Homo sapiens, UniProt P30550); assay: Determination of GRPR affinity (IC50), competition with [D-3-[125I]I-Tyr6]MJ9 on PC-3 cells; assay type: binding; settings: for IC50 [nM], ^natLu-labeled (n = 3): Table 6, natLu-labeled
T1 construct: endogenous in cells; host or cells: PC-3 cells
T1 sequence (P30550 whole entry): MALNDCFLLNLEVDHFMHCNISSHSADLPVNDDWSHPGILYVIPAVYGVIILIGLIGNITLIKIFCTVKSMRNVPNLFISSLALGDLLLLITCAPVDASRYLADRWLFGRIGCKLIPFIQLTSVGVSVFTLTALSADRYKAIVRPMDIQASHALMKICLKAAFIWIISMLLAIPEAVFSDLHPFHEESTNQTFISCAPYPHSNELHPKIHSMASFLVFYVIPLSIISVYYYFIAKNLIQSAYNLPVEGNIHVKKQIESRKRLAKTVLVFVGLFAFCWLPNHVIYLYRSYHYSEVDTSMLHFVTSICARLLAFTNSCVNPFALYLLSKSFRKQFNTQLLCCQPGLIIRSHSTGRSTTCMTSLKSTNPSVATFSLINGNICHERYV
Method: The reference ligand for IC50 studies ([D-3-[^125I]I-Tyr^6]MJ9) is prepared according to a previously published procedure. Briefly, 0.2 mg of [D-Tyr^6]MJ9 are dissolved in 20 μL Tracepur water and 280 μL TRIS buffer (25 mm TRIS HCl, 0.4 M NaCl, pH=7.9). After addition of the solution to a vial containing 150 μg Iodo-Gen® (1,3,4,6-Tetrachloro-3α,6α-diphenylglycouril, surface-bound), 5.0 μL (16 MBq) [^125I]Nal(74 TBq/mmol, 3.1 GBq/mL, 40 mM NaOH, Hartmann Analytic, Braunschweig, Germany) are added.
The GRPR-positive PC-3 cells are cultured in Dublecco modified Eagle medium/Nutrition Mixture F-12 with Glutamax-I (1:1) (Invitrigon), supplemented with 10% fetal calf serum and maintained at 37° C. in a humidified 5% CO2 atmosphere.
After removal of the culture medium, the cells are washed once with 500 μL of HBSS (Hank's balanced salt solution, Biochrom, Berlin, Germany, with addition of 1% bovine serum albumin (BSA)) and left in 200 μL HBSS (1% BSA) for 9 min at room temperature for equilibration. Next, 25 μL per well of solutions, containing either HBSS (1% BSA) as control or the respective ligand in increasing concentration (10^−10 M-10^−4 M in HBSS), are added with subsequent addition of 25 μL of [D-3-[^125I]I-Tyr^6]MJ9 (2.0 nM) in HBSS (1% BSA).
All experiments are performed in triplicate for each concentration. After 2 h incubation at room temperature, the experiment is terminated by removal of the medium and consecutive rinsing with 300 μL of HBSS. The media of both steps are combined in one fraction and represent the amount of free radiolabeled reference. Afterwards, the cells are lysed with 300 μL of 1 M NaOH for at least 15 min and united with the 300 μL NaOH of the following washing step. Quantification of bound and free radiolabeled reference is accomplished in a γ-counter.
IC50 determination for each ligand was repeated twice.

[1] = n-Octanol-PBS distribution coefficient, log D7.4; assay type: physicochemical; settings: for log D7.4 (n = 6), ^177Lu-labeled: Table 6, 177Lu-labeled Bombesin-SiFA compounds
Method: Approximately 1 MBq of the labeled tracer was dissolved in 1 mL of a 1:1 mixture (v/v) of phosphate buffered saline (PBS, pH=7.4) and n-octanol in an Eppendorf tube. After vigorous mixing of the suspension for 3 min at room temperature, the vial was centrifuged at 9000 rpm for 5 min (Biofuge 15, Heraus Sepatech, Osterode, Germany) and 200 μL aliquots of both layers were measured in a γ-counter. The experiment was repeated at least four times.

[2] = Plasma studies: metabolic stability in vitro in human plasma (radio RP-HPLC); assay type: in vitro ADME; settings: Table 1C; 177Lu-labeled, 37° C., 72 ± 2 h; in % (unit assumed)
Method: Metabolic stability in vitro was determined applying a procedure published by Linder et al. that was slightly modified. Immediately after labeling, human (200 μL) or murine (100 μL) plasma was added and the mixture was incubated at 37° C. for 72±2 h (or 6±0.5 h). Proteins were precipitated by treatment with ice-cold EtOH (150 μL [human], 100 μL [murine]) and ice-cold MeCN (450 μL [human], 300 μL [murine]), followed by centrifugation for 20 min at 13000 rpm. The supernatants were decanted and further analyzed using radio RP-HPLC. […]

[3] = IC50 [nM] ± SD (n = 3), Table 5, non-labeled N4 ligands, [D-3-[125I]I-Tyr6]MJ9 (c = 0.2 nM), 2 h, r.t.
[4] = [D-3-[125I]I-Tyr6]MJ9 (c = 0.2 nM), 2 h, r.t.
[5] = read-out: IC50 [nM] ± SD (n = 3), ^177Lu-labeled, Table 1C, GRPR affinity

SMILES: CC(C)C[C@H](NC(=O)C[C@H](O)[C@H](CC(C)C)NC(=O)[C@H](Cc1c[nH]cn1)NC(=O)CNC(=O)[C@@H](NC(=O)[C@H](C)NC(=O)[C@H](Cc1c[nH]c2ccccc12)NC(=O)[C@H](CCO)NC(=O)[C@@H](Cc1ccccc1)NC(=O)CN1CCC(NC(=O)CN2CCN(CC(=O)O)CCN(CC(=O)O)CCN(CC(=O)O)CC2)CC1)C(C)C)C(N)=O [[^natGa]DOTA-[Hse^7]MJ9, metal not drawn]
- IC50 (GRPR; read-out: IC50 ± SD (n = 3), Table 3, [D-3-[125I]I-Tyr6]MJ9 (c = 0.2 nM), 2 h, r.t., HBSS + 1% BSA): 12.2 ± 0.2 nM

SMILES: CC(C)C[C@H](NC(=O)C[C@H](O)[C@H](CC(C)C)NC(=O)[C@H](Cc1c[nH]cn1)NC(=O)CNC(=O)[C@@H](NC(=O)[C@H](C)NC(=O)[C@H](Cc1csc2ccccc12)NC(=O)[C@H](CCC(N)=O)NC(=O)[C@@H](Cc1ccccc1)NC(=O)CN1CCC(NC(=O)[C@H](CC(=O)O)NC(=O)C(CNCCN)CNCCN)CC1)C(C)C)C(N)=O [N4-asp-[Bta^8]MJ9] (X2-D[X1][dF]Q[Bta]AVGH[Sta]L-NH2)
- IC50 (GRPR; [3]): 3.36 ± 0.42 nM
- log D7.4 (n = 6), ^99mTc-labeled ([1]; n-octanol/PBS pH 7.4): −1.33 ± 0.06

SMILES: CC(C)C[C@H](NC(=O)C[C@H](O)[C@H](CC(C)C)NC(=O)[C@H](Cc1c[nH]cn1)NC(=O)CNC(=O)[C@@H](NC(=O)[C@H](C)NC(=O)[C@H](Cc1c[nH]c2ccccc12)NC(=O)[C@H](CCC(N)=O)NC(=O)[C@@H](Cc1ccccc1)NC(=O)CN1CCC(NC(=O)[C@H](CC(=O)O)NC(=O)C(CNCCN)CNCCN)CC1)C(C)C)C(N)=O [Ligand N4-asp-MJ9]
- IC50 (GRPR; [3]): 3.73 ± 0.78 nM
- log D7.4 (n = 6), ^99mTc-labeled ([1]; n-octanol/PBS pH 7.4): −1.86 ± 0.03

SMILES: CC(C)C[C@H](NC(=O)C[C@H](O)[C@H](CC(C)C)NC(=O)[C@H](Cc1c[nH]cn1)NC(=O)CNC(=O)[C@@H](NC(=O)[C@H](C)NC(=O)[C@H](Cc1csc2ccccc12)NC(=O)[C@H](CCC(N)=O)NC(=O)[C@@H](Cc1ccccc1)NC(=O)CN1CCC(NC(=O)CN2CCN(CC(=O)O)CCN(CC(=O)O)CCN(CC(=O)O)CC2)CC1)C(C)C)C(N)=O [[^natGa]DOTA-[Bta^8]MJ9, metal not drawn] ({DOTA}-[X1][dF]Q[Bta]AVGH[Sta]L-NH2)
- IC50 (GRPR; IC50 ± SD (n = 3), Table 3, [D-3-[125I]I-Tyr6]MJ9 (c = 0.2 nM), 2 h, r.t., HBSS + 1% BSA): 3.06 ± 0.15 nM

SMILES: CC(C)C[C@H](NC(=O)C[C@H](O)[C@H](CC(C)C)NC(=O)[C@H](Cc1c[nH]cn1)NC(=O)CNC(=O)[C@@H](NC(=O)[C@H](C)NC(=O)[C@H](Cc1c[nH]c2ccccc12)NC(=O)[C@H](CCC(N)=O)NC(=O)[C@@H](Cc1ccccc1)NC(=O)CN1CCC(NC(=O)CN2CCC(NC(=O)[C@@H](CC(=O)O)NC(=O)[C@@H](CNC(=O)CCC(C(=O)O)N3CCN(CC(=O)O)CCN(CC(=O)O)CCN(CC(=O)O)CC3)NC(=O)[C@@H](CNC(=O)c3ccc([Si](F)(C(C)(C)C)C(C)(C)C)cc3)NC(=O)CC[C@@H](NC(=O)N[C@H](CCC(=O)O)C(=O)O)C(=O)O)CC2)CC1)C(C)C)C(N)=O (stereo partly drawn) [GT53] ({dE-CO-d(γGlu)}-[dDap](Benzoyl(4-SiFtBu2))[dDap](DOTAGA)[dD][X1][X1][dF]QWAVGH[Sta]L-NH2)
- IC50 [nM], ^natLu-labeled (n = 3) (GRPR; [4]): slightly increased
- log D7.4 (n = 6), ^177Lu-labeled [1]: −1.81 ± 0.15

SMILES: CC(C)C[C@H](NC(=O)C[C@H](O)[C@H](CC(C)C)NC(=O)[C@H](Cc1c[nH]cn1)NC(=O)CNC(=O)[C@@H](NC(=O)[C@H](C)NC(=O)[C@H](Cc1c[nH]c2ccccc12)NC(=O)[C@H](CCC(N)=O)NC(=O)[C@@H](Cc1ccccc1)NC(=O)CN1CCC(NC(=O)[C@@H](CN)NC(=O)[C@@H](CC(=O)O)NC(=O)[C@@H](CCCN)NC(=O)[C@@H](CNC(=O)CCC(C(=O)O)N2CCN(CC(=O)O)CCN(CC(=O)O)CCN(CC(=O)O)CC2)NC(=O)[C@@H](CNC(=O)c2ccc([Si](F)(C(C)(C)C)C(C)(C)C)cc2)NC(=O)CC[C@@H](NC(=O)N[C@H](CCC(=O)O)C(=O)O)C(=O)O)CC1)C(C)C)C(N)=O (stereo partly drawn) [GT51] ({dE-CO-d(γGlu)}-[dDap](Benzoyl(4-SiFtBu2))[dDap](DOTAGA)[dOrn][dD][dDap][X1][dF]QWAVGH[Sta]L-NH2)
- IC50 [nM], ^natLu-labeled (n = 3) (GRPR; [4]): slightly increased
- log D7.4 (n = 6), ^177Lu-labeled [1]: −1.96 ± 0.15

SMILES: CC(C)CC(CC(C)C)NC(=O)[C@H](Cc1c[nH]cn1)NC(=O)CNC(=O)[C@@H](NC(=O)[C@H](C)NC(=O)[C@](C)(Cc1c[nH]c2ccccc12)NC(=O)[C@H](CCC(N)=O)NC(=O)[C@@H](Cc1ccccc1)NC(=O)COCC(=O)Nc1ccc(CNC(=O)CN2CCN(CC(=O)O)CCN(CC(=O)O)CCN(CC(=O)O)CC2)cc1)C(C)C [[α-Me-Trp^8]NeoBOMB1]
- Amount of intact tracer after incubation in human plasma for 72 ± 2 h (n = 2) [2]: 70.7 ± 2.8
- IC50 (GRPR; [5]): 6.8 ± 1.2 nM

SMILES: CC(C)C[C@H](NC(=O)C[C@H](O)[C@H](CC(C)C)NC(=O)[C@H](Cc1c[nH]cn1)NC(=O)CNC(=O)[C@@H](NC(=O)[C@H](C)NC(=O)[C@H](Cc1c[nH]c2ccccc12)NC(=O)[C@H](CCC(N)=O)NC(=O)[C@@H](Cc1ccccc1)NC(=O)CN1CCC(NC(=O)CN2CCC(NC(=O)CN3CCC(NC(=O)[C@@H](CC(=O)O)NC(=O)[C@@H](CNC(=O)CCC(C(=O)O)N4CCN(CC(=O)O)CCN(CC(=O)O)CCN(CC(=O)O)CC4)NC(=O)[C@@H](CNC(=O)c4ccc([Si](F)(C(C)(C)C)C(C)(C)C)cc4)NC(=O)CC[C@@H](NC(=O)N[C@H](CCC(=O)O)C(=O)O)C(=O)O)CC3)CC2)CC1)C(C)C)C(N)=O (stereo partly drawn) [GT52] ({dE-CO-d(γGlu)}-[dDap](Benzoyl(4-SiFtBu2))[dDap](DOTAGA)[dD][X1][X1][X1][dF]QWAVGH[Sta]L-NH2)
- IC50 [nM], ^natLu-labeled (n = 3) (GRPR; [4]): comparable range
- log D7.4 (n = 6), ^177Lu-labeled [1]: −2.05 ± 0.08

SMILES: CC(C)CC(CC(C)C)NC(=O)[C@H](Cc1c[nH]cn1)NC(=O)CNC(=O)[C@@H](NC(=O)[C@H](C)NC(=O)[C@H](Cc1c[nH]c2ccccc12)NC(=O)[C@H](CCO)NC(=O)[C@@H](Cc1ccccc1)NC(=O)COCC(=O)Nc1ccc(CNC(=O)CN2CCN(CC(=O)O)CCN(CC(=O)O)CCN(CC(=O)O)CC2)cc1)C(C)C [[Hse^7]NeoBOMB1] (X4-[dF][hSer]WAVGH-{NHCH(iBu)2}; N-terminus and C-terminus assumed)
- Amount of intact tracer after incubation in human plasma for 72 ± 2 h (n = 2) [2]: 57.4 ± 2.1
- IC50 (GRPR; [5]): 8.3 ± 0.7 nM

SMILES: CC(C)C[C@H](NC(=O)C[C@H](O)[C@H](CC(C)C)NC(=O)[C@H](Cc1c[nH]cn1)NC(=O)CNC(=O)[C@@H](NC(=O)[C@H](C)NC(=O)[C@](C)(Cc1c[nH]c2ccccc12)NC(=O)[C@H](CCC(N)=O)NC(=O)[C@@H](Cc1ccccc1)NC(=O)CN1CCC(NC(=O)CCC(C(=O)O)N2CCN(CC(=O)O)CCN(CC(=O)O)CCN(CC(=O)O)CC2)CC1)C(C)C)C(N)=O (single isomer, unassigned) [AMTG2]
- log D7.4 ± SD (n = 8) ([1]; 177Lu-labeled ligand, n-octanol/PBS pH 7.4): −2.51 ± 0.11

SMILES: CC(C)CC(CC(C)C)NC(=O)[C@H](Cc1c[nH]cn1)NC(=O)CNC(=O)[C@@H](NC(=O)[C@H](C)NC(=O)[C@H](Cc1csc2ccccc12)NC(=O)[C@H](CCC(N)=O)NC(=O)[C@@H](Cc1ccccc1)NC(=O)COCC(=O)Nc1ccc(CNC(=O)CN2CCN(CC(=O)O)CCN(CC(=O)O)CCN(CC(=O)O)CC2)cc1)C(C)C [[Bta^8]NeoBOMB1] (X4-[dF]Q[Bta]AVGH-{NHCH(iBu)2}; N-terminus and C-terminus assumed)
- Amount of intact tracer after incubation in human plasma for 72 ± 2 h (n = 2) [2]: 36.2 ± 3.8
- IC50 (GRPR; [5]): 13 ± 3 nM
